The test system of assay [1] is SK-N-AS (normal MYCN expression). The following applies: 1 μM or 10 μM; 48, 72 and 96 hours. As to the method:
(§1) Cyclopamine, a known natural inhibitor of SHH, was administered to SK-N-AS and IMR-32, to assess the impact of SHH inhibition on cell viability of neuroblastoma cells with normal and amplified MYCN expression, respectively. Cyclopamine was administered to the SK-N-AS and IMR-32 in 1 μM or 10 μM doses, and the growth inhibition was assayed at 48, 72 and 96 hours.

The subject of assay [2] is IMR-32 (amplified MYCN expression). The following applies: 1 μM or 10 μM; 48, 72 and 96 hours; compared to SK-N-AS. Here is the method:
as §1

Results on 1 molecule are retold here after US10188630B2, “Methods for identifying and using inhibitors of casein kinase 1 epsilon isoform for inhibiting the growth and/or proliferation of MYC-driven tumor cells” (Fred Hutchinson Cancer Research Center, priority 2010, dated 2019).

Turning to `CC1=C2C[C@H]3[C@@H](CC=C4C[C@@H](O)CC[C@@]43C)[C@@H]2CC[C@]12O[C@@H]1C[C@H](C)CN[C@H]1[C@H]2C` [Cyclopamine], the growth inhibition entry in assay [1] is recorded as “Growth inhibition was detected”; in assay [2], “more pronounced”.
